# Molecular target: Cy5-labelled Mcl1 (amino acids 171-321) C286S protein (UniProtKB Q07820) (Homo sapiens (Human), UniProt Q07820, C286S)
# Test: Inhibition of Mcl-1 by the fluorescence quenching assay (Example A, Method B)
# Type: binding
# Details: not given
# Description: Fluorescence quenching assay measures the change fluorescence intensity of C-terminally Cy5-labelled Mcl1 (amino acids 171-321) C286S protein (UniProtKB® primary accession number Q07820) having an amino acid sequence:
# which is linked at the C-terminus to the amino acid X which corresponds to a cysteine labelled on the sulfur with sulpho-Cyanine5 from Lumiprobe GmbH catalogue number 13380, upon binding of a C-terminally labelled peptide derived from PUMA (UniProtKB® primary accession number Q9BXH1) having an amino acid sequence:
# which is linked at the C-terminus to the amino acid X′, where X′ is cysteine labelled on the sulfur with TQ5WS from AAT Bioquest catalogue number 2079.
# The addition of a compound which binds competitively to the same site as the peptide will result in an increase in the fluorescence intensity of the protein due to displacement of the fluorescence quencher.
# An 11-point serial dilution of each compound was prepared in DMSO, the final buffer conditions were 10 mM 4-(2-hydroxyethyl)-1-piperazineethanesulfonic acid [HEPES], 150 mM NaCl, 0.05% Tween 20, pH 7.4 and 5% DMSO. The final protein concentration in the assay was 1 nM with the peptide present at 10, 20 or 400 nM. The experiments were incubated for 2 hours at room temperature before fluorescence intensity was measured on a Biotek SynergyNeo plate reader (Excitation 620 nm, emission 680 nm). The dose response curves were plotted with XL-Fit software using a 4-Parameter Logistic Model (Sigmoidal DoseResponse Model) and the inhibitory concentrations that gave a 50% increase in fluorescence intensity was determined (IC50). The Ki values were determined from the IC50 values according to Cer et al, Nucleic Acids Res, 2009, 37 (WebServer issue): W441-W445. Inhibition constants (Ki) are determined from complete binding inhibition curves (cKi) or from estimated from incomplete binding inhibition curves (eKi) in most cases due to low activity.
# Cy5-labelled Mcl1 (amino acids 171-321) C286S protein, sequence (Q07820 171-321 C286S): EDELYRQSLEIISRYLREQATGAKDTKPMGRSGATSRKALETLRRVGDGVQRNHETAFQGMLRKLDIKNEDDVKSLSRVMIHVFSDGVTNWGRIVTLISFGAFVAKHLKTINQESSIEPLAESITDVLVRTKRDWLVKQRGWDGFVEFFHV
row,Ki [nM],Compound
1,221,"C[C@@H](CNc1ccncc1)C[C@@H]1Cc2ccccc2[C@]12CC[C@@](Nc1cccc(Cl)c1)(C(=O)O)CC2 [Example 574, (1r,2′R,4R)-4-(3-chloroanilino)-2′-{(2R)-2-methyl-3-[(pyridin-4-yl)amino]propyl}-2′,3′-dihydrospiro[cyclohexane-1,1′-indene]-4-carboxylic acid]"
2,6.01,"C[C@@H](COc1ccnc2c1CCCCC2)CC1=Cc2ccccc2[C@]12CC[C@@](Nc1cccc(Cl)c1)(C(=O)O)CC2 [Example 632, (1r,4R)-4-(3-chloroanilino)-2′-{(2R)-2-methyl-3-[(6,7,8,9-tetrahydro-5H-cyclohepta[b]pyridin-4-yl)oxy]propyl}spiro[cyclohexane-1,1′-indene]-4-carboxylic acid]"

# More lines, now with the values behind:
row,Compound,Ki [nM]
1,"CC(CC1Cc2ccccc2[C@]12CC[C@@](Nc1cccc(Cl)c1)(C(=O)O)CC2)C(C)Oc1ccnc2c1CCC2 (single isomer, unassigned) [Example 615, (1r,4r)-4-(3-chloroanilino)-2′-{3-[(6,7-dihydro-5H-cyclopenta[b]pyridin-4-yl)oxy]-2-methylbutyl}-2′,3′-dihydrospiro[cyclohexane-1,1′-indene]-4-carboxylic acid]",241
2,"CC(C)(C)OC(=O)N1CCC(CC2=Cc3ccccc3[C@]23CC[C@@](Nc2cccc(Cl)c2)(C(=O)O)CC3)CC1 [Example 558, (1r,4r)-2′-{[1-(tert-butoxycarbonyl)piperidin-4-yl]methyl}-4-(3-chloroanilino)spiro[cyclohexane-1,1′-indene]-4-carboxylic acid]",549
3,"CC[C@@H](COc1ccnc2ccsc12)C[C@H]1Cc2ccccc2[C@]12CC[C@@](Nc1cccc(Cl)c1)(C(=O)O)CC2 [Example 538, (1r,2′S,4S)-4-(3-chloroanilino)-2′-[(2R)-2-{[(thieno[3,2-b]pyridin-7-yl)oxy]methyl}butyl]-2′,3′-dihydrospiro[cyclohexane-1,1′-indene]-4-carboxylic acid]",9.15
4,"O=C(O)[C@]1(Nc2cccc(Cl)c2)CC[C@@]2(CC1)c1ccccc1CC2CC(CO)COc1ccnc2c1CCC2 (single isomer, unassigned) [Example 500, (1r,4r)-4-(3-chloroanilino)-2′-(2-{[(6,7-dihydro-5H-cyclopenta[b]pyridin-4-yl)oxy]methyl}-3-hydroxypropyl)-2′,3′-dihydrospiro[cyclohexane-1,1′-indene]-4-carboxylic acid]",15.5
5,"Cc1cc(OCCC[C@H]2Cc3ccccc3[C@]23CC[C@@](Nc2cccc(Cl)c2)(C(=O)O)CC3)c2cc[nH]c2c1 [Example 488, (1r,2′S,4S)-4-(3-chloroanilino)-2′-{3-[(6-methyl-1H-indol-4-yl)oxy]propyl}-2′,3′-dihydrospiro[cyclohexane-1,1′-indene]-4-carboxylic acid]",152
6,"Cc1cnc2c(c1OC[C@H](C)C[C@H]1Cc3ccccc3[C@]13CC[C@@](Nc1cccc(Cl)c1)(C(=O)O)CC3)CCCC2 [Example 649, (1r,2′S,4S)-4-(3-chloroanilino)-2′-{(2R)-2-methyl-3-[(3-methyl-5,6,7,8-tetrahydroquinolin-4-yl)oxy]propyl}-2′,3′-dihydrospiro[cyclohexane-1,1′-indene]-4-carboxylic acid]",6.36
7,"CC(C)COc1cc2c(cc1Cl)C[C@H](C[C@@H](C)COc1ccnc3c1[C@H](C)CCC3)[C@]21CC[C@](Nc2cccc(Cl)c2)(C(=O)O)CC1 [Example 820, (1r,2′S,4S)-5′-chloro-4-(3-chloroanilino)-2′-[(2R)-2-methyl-3-{[(5R)-5-methyl-5,6,7,8-tetrahydroquinolin-4-yl]oxy}propyl]-6′-(2-methylpropoxy)-2′,3′-dihydrospiro[cyclohexane-1,1′-indene]-4-carboxylic acid]",0.469
8,"Cc1cc(OCCC[C@@H]2Cc3ccccc3[C@]23CC[C@@](Nc2cccc(Cl)c2)(C(=O)O)CC3)c2cc[nH]c2c1 [Example 487, (1r,2′R,4R)-4-(3-chloroanilino)-2′-{3-[(6-methyl-1H-indol-4-yl)oxy]propyl}-2′,3′-dihydrospiro[cyclohexane-1,1′-indene]-4-carboxylic acid]",72.9

# Same assay, conditions: @ 1 μM, read-out: Mcl-1 inhibition, % at a single concentration
row,inhibition at 1 µM [%],Compound
1,11.1,"COC(=O)[C@]1(Nc2cccc(Cl)c2)CC[C@@]2(CC1)c1cc3c(cc1C[C@@H]2C[C@@H](C)COc1ccnc2c1[C@H](C)CCC2)OCO3 [Example 839, methyl (1r,4S,6′S)-4-(3-chloroanilino)-6′-[(2R)-2-methyl-3-{[(5R)-5-methyl-5,6,7,8-tetrahydroquinolin-4-yl]oxy}propyl]-6′,7′-dihydro-2′H-spiro[cyclohexane-1,5′-indeno[5,6-d][1,3]dioxole]-4-carboxylate]"

# Same assay, conditions: @ 10 μM, read-out: Mcl-1 inhibition, % at a single concentration
row,inhibition at 10 µM [%],Compound
1,9.5,"CC(C)OC(=O)[C@]1(Nc2cccc(Cl)c2)CC[C@@]2(CC1)c1cc3c(cc1C[C@@H]2C[C@@H](C)COc1ccnc2c1[C@H](C)CCC2)OCO3 [Example 931, propan-2-yl (1r,4S,6′S)-4-(3-chloroanilino)-6′-[(2R)-2-methyl-3-{[(5R)-5-methyl-5,6,7,8-tetrahydroquinolin-4-yl]oxy}propyl]-6′,7′-dihydro-2′H-spiro[cyclohexane-1,5′-indeno[5,6-d][1,3]dioxole]-4-carboxylate]"

# Same assay, conditions: Ki determined from IC50
row,Ki [nM],Compound
1,91.6,"Cc1cccc2c1C=C(Br)[C@]21CC[C@](Nc2cccc(Cl)c2)(C(=O)O)CC1 [Example 141, (1s,4s)-2′-bromo-4-(3-chloroanilino)-4′-methylspiro[cyclohexane-1,1′-indene]-4-carboxylic acid]"
2,37.1,"O=C(O)[C@]1(Nc2cccc(Cl)c2)CC[C@]2(CC1)C(CCOc1ccnc3ccsc13)=Cc1ccccc12 [Example 178, (1r,4r)-4-(3-chloroanilino)-2′-{2-[(thieno[3,2-b]pyridin-7-yl)oxy]ethyl}spiro[cyclohexane-1,1′-indene]-4-carboxylic acid]"
3,1250,"O=C(O)[C@]1(Nc2cccc(Cl)c2)CC[C@]2(CC1)C(CCc1ccccn1)=Cc1ccccc12 [Example 199, (1r,4r)-4-(3-chloroanilino)-2′-[2-(pyridin-2-yl)ethyl]spiro[cyclohexane-1,1′-indene]-4-carboxylic acid]"
4,139,"O=C(O)[C@]1(Nc2cccc(Cl)c2)CC[C@]2(CC1)C(CCc1ccccc1)=Cc1ccccc12 [Example 200, (1r,4r)-4-(3-chloroanilino)-2′-(2-phenylethyl)spiro[cyclohexane-1,1′-indene]-4-carboxylic acid]"

# The next lines start with the molecule.
row,Compound,Ki [nM]
1,"Cc1cc2c(cc1C)[C@]1(CC[C@@](Nc3cccc(Cl)c3)(C(=O)O)CC1)C(Br)=C2 [Example 140, (1s,4s)-2′-bromo-4-(3-chloroanilino)-5′,6′-dimethylspiro[cyclohexane-1,1′-indene]-4-carboxylic acid]",57.4
2,"C[C@@H](COc1cccc2[nH]ccc12)CN1Cc2ccccc2[C@]12CC[C@@](Nc1cccc(Cl)c1)(C(=O)O)CC2 [Example 39, (1s,4S)-4-(3-chloroanilino)-2′-{(2R)-3-[(1H-indol-4-yl)oxy]-2-methylpropyl}-2′,3′-dihydrospiro[cyclohexane-1,1′-isoindole]-4-carboxylic acid]",44.9
3,"C[C@@H](COc1ccnc2ccsc12)CN1Cc2ccccc2[C@]12CC[C@@](Nc1cccc(Cl)c1)(C(=O)O)CC2 [Example 38, (1s,4S)-4-(3-chloroanilino)-2′-{(2R)-2-methyl-3-[(thieno[3,2-b]pyridin-7-yl)oxy]propyl}-2′,3′-dihydrospiro[cyclohexane-1,1′-isoindole]-4-carboxylic acid]",14.4

# Reference: US20240150293A1, “SPIROCYCLOHEXANE DERIVATIVES, PHARMACEUTICAL COMPOSITIONS CONTAINING THEM AND THEIR USES AS ANTI-APOPTOTIC INHIBITORS” (LES LABORATOIRES SERVIER, priority 2021, published 2024)
